Data from patent US20090191185A1, “Reducing Cancer Cell Invasion Using an Inhibitor of Toll Like Receptor Signaling” (THE UAB RESEARCH FOUNDATION, priority 2006, published 2009).
Entries after “also recorded” stand apart in the source; their conditions may differ. Oligonucleotides are written 5' to 3', each unit as a sugar letter and its base; * is a phosphorothioate linkage, no mark a phosphodiester; rarer units and linkages stand in square brackets, end groups in braces. Plain capitals give the bases only. d = 2'-deoxy (DNA)

Experiments:
Type in all cases: cell-based, human
[1] = tested on: MMP-activity in MDA-MB-231 cells; assay: gelatin zymogram of MDA-MB-231 supernatants; details: 2 μM added to final incubation of gels
Experimental: Zymograms. The zymograms were performed as previously described (Suarex-Cuervo et al., Clin. Exp. Metastasis 21:525-33 (2004)). In this assay, the gelatinolytic bands represent the following MMPs: 120 kDa band represents MMP-9 and neutrophil gelatinase associated lipocalin complex, 90 kDa band represents pro-MMP-9 and the 72 kDa band represents proMMP-2. Briefly, MDA-MB-231 cells were plated on 12-well plates and allowed to reach confluency. The cells were then rinsed with PBS and serum-free medium, with the indicated concentrations of type C CpG-ODNs, type C non-CpG-ODNs or vehicle was applied for 24 h.

MDA-MB-231 cells = assay: Matrigel invasion assay, MDA-MB-231 cells
Experimental: (§1) In vitro invasion assays. For the Matrigel-invasion assay the cells were plated at the density of 5×10^4 (MDA-MB-231, U373, D54MG), 15×10^4 (T47-D) or 30×10^4 (MCF-7) cells per upper well in 750 μl of normal culture medium (Virtanen et al., Cancer Res. 62:2708-14 (2002)), indicated concentrations of the various CpG-ODNs, non-CpG-ODNs or vehicle were added to both the upper and lower wells. When indicated, aprotinin (2 μM), GM6001 (2 μM), MMP-8 inhibitor 1 (8 nM) or the same volume of the corresponding control compound, control IgG or neutralizing anti-MMP-13 antibody (R& D Systems, Minneapolis, Minn., both at 12 μg/ml) or chloroquine (10 μM) were also added to both upper and lower wells. The cells were allowed to invade for 18 h, after which the inserts were removed and stained with the Hema 3 Stain set (Fisher Diagnostics, Middletown, Pa.), according to the manufacturer's recommendation. The number of invaded cells was counted from 5 pre-selected microscopic fields using a 40× objective. To assess invasion in a three-dimensional type I collagen gel, acid solubilized type I collagen (0.9 ml) was added to the Costar Transwell dishes (Corning, Inc., Corning, N.Y.) and gelled over 45 min at 37° C. The collagen was prepared using rat-tail type 1 collagen dissolved in 0.2% acetic acid at 3.2 mg/ml and gelled by neutralizing the acid with 0.3 N NaOH containing phenol red as a pH indicator. A final concentration of 3.0 mg/ml was obtained. Media, containing vehicle or 10 μM type C CpG-ODN was men added to the upper and lower chambers prior to the addition of 5×10^5 cells to the surface of the collagen gel in the presence of serum-containing medium. […] Tumor cell invasion (depth and number of cells below the surface) was assessed by light microscopy in a minimum of four randomly selected sections for each experimental sample. The number of invading cells per high power field (400×) were counted and averaged. The depth of invasion was also measured in four randomly selected areas for each sample using photomicrograph of each sample.

PC-3 cells = assay: Matrigel invasion assay, PC-3 cells
Experimental: In vitro invasion assays. For the Matrigel-invasion assay the cells were plated at the density of 5×10^4 (PC-3, Du-145, LnCaP and MDA PCa 2b) cells per upper well in 500 μl of normal culture medium, Indicated concentrations of the various CpG-ODNs, bacterial DNA (E. Coli, Sigma, St. Louis, Mo.) or vehicle were added to both the upper and lower wells. When indicated, p38- or JNK-inhibitor (both at final concentration of 10^−5 M), control IgG or neutralizing anti-MMP-13 antibody (R&. D Systems, Minneapolis, Minn., both at 12 μg/ml) or chloroquine (10 μM) were also added to both upper and lower wells. […] The number of invaded cells were counted from 5 pre-selected microscopic fields using a 40× objective.

NFκB reporter gene = NFκB reporter gene assay in transfected MDA-MB-231 pools
Experimental: MDA-MB-231 cells were stably transfected with pIRES-EGFP empty vector (EV) or with pIRES-EGFP-TRAF6DN-Flag. Stable pools were Flow-sorted for the expression of EGFP for 3 cycles. […] The same blots were stripped and re-blotted with antibodies against Flag, GFP and actin. For FIG. 12B, the various cells were transiently transfected with a NFκB reporter gene and treated with CpG-ODN or TNF-α. Reporter gene activation was calculated as fold-increase vs. vehicle-treatment. Mean±SD, n=6. * p<0.05, *** p<0.001 pIRES-EV vs. pIRES-EGFP-TRAF6DN. For FIG. 12C, the pIRES-EGFP and pIRES-EGFP-TRAF6DN cells were plated on Matrigel-assays and treated with vehicle or with 2 or 10 μM Non-CpG-ODN or CpG-ODN, The number of invaded cells were counted microscopically 22 h later. Data are expressed as fold-increase in treatment-induced invasion, mean±sd, n±3-6. * p<0.05, ** p<0.01 pIRES-EGFP vs. pIRES-EGFP-TRAF6DN.
Stable transfection of TRAF6 into MDA-MB-231 breast cancer cells. The cDNA encoding for dominant negative TRAF6 has been described previously (Yeo et al., (2003) J. Biol. Chem. 278:22563-22573). The pIRES-EGF-DNTRAF6-Flag and pIRES-EGF were stably transfected into the MDA-MB-231 cells. The established stable pools were submitted to three cycles of Flow-sorting for highest emission of GFP, to enrich the populations of transfected cells. […]

[2] = tested on: MCF-10A mammary epithelial cells; assay: Matrigel invasion assay, MCF-10A cells; details: 1 and 10 μM
[3] = tested on: MDA-MB-231, T47-D or MCF-7 cells; assay: MTS cell viability assay, breast cancer cells
Experimental: Cell viability assays. MDA-MB-231, T47-D or MCF-7 cells were plated at the density of 1000 cells/well in 96-well plates in normal culture medium, and cultured for the indicated periods of time with 10 μM type C CpG-ODN or vehicle. Cell viability was assessed after MTS was added for the final 2 hours of the experimental cultures as recommended by the manufacturer (CellTiter 96 AQueous Non-Radioactive Cell Proliferation Assay, Promega, Madison, Wis.).

[4] = tested on: MCF-7 breast cancer cells; assay: Matrigel invasion assay, MCF-7 cells; details: 1 and 10 μM
Experimental: as §1, with “objective.” for “objective. To assess invasion in a three-dimensional type I collagen gel, acid solubilized type I collagen (0.9 ml) was added to the Costar Transwell dishes (Corning, Inc., Corning, N.Y.) and gelled over 45 min at 37° C. The collagen was prepared using rat-tail type 1 collagen dissolved in 0.2% acetic acid at 3.2 mg/ml and gelled by neutralizing the acid with 0.3 N NaOH containing phenol red as a pH indicator. A final concentration of 3.0 mg/ml was obtained. Media, containing vehicle or 10 μM type C CpG-ODN was men added to the upper and lower chambers prior to the addition of 5×10^5 cells to the surface of the collagen gel in the presence of serum-containing medium.”

CNC(=O)[C@H](Cc1c[nH]c2ccccc12)NC(=O)[C@@H](CC(=O)NO)CC(C)C [GM6001]
effect on CpG-ODN-induced gelatinolytic band of about 50 kDa [1]: abolished; also recorded: did disappear | effect on type C CpG-induced invasion of MDA-MB-231 cells (MDA-MB-231 cells; inhibitor 2 μM, type C CpG-ODN 10 μM): inhibited CpG-ODN-induced invasion; also recorded: inhibited by the MMP inhibitor

CCN(CC)CCCC(C)Nc1ccnc2cc(Cl)ccc12 (stereo not drawn) [chloroquine]
effect of chloroquine on E. coli DNA-induced invasion of PC-3 cells (PC-3 cells; chloroquine 10 μM, 1000 ng/ml E. coli DNA, 20 h): inhibited | effect of chloroquine on CpG-ODN-induced invasion of PC-3 cells (PC-3 cells; chloroquine 10 μM, CpG-ODN 5 μM, 18 h): significantly inhibited; also recorded: inhibits CpG-ODN-induced invasion | effect on non-CpG-ODN-induced invasion (MDA-MB-231 cells; chloroquine 10 μM, non-CpG-ODN 10 μM, 18 h): inhibited | effect on CpG-ODN-induced invasion (MDA-MB-231 cells; chloroquine 10 μM, type C CpG-ODN 10 μM, 18 h): blocked; also recorded: inhibited

C[S+]([O-])c1ccc(-c2nc(-c3ccncc3)c(-c3ccc(F)cc3)[nH]2)cc1 (stereo not drawn) [p38 inhibitor, SB203580]
effect of MAP-kinase inhibitors on CpG-ODN-induced invasion of PC-3 cells (PC-3 cells; inhibitor 10^−5 M, CpG-ODN 5 μM, 18 h): Neither of these inhibitors affected CpG-ODN-induced invasion

TNF-α
NFκβ-promoter activity in empty vector cells (NFκB reporter gene; pIRES-EGFP empty vector MDA-MB-231): significant increase in NFκβ-promoter activity | NFκβ-promoter activity in TRAF6DN-pool (NFκB reporter gene; pIRES-EGFP-TRAF6DN MDA-MB-231): blunted

aprotinin
effect on CpG-ODN-induced gelatinolytic band of about 50 kDa [1]: did not disappear; also recorded: not inhibited

type C non-CpG-ODN: 5′-tgc tgc tgc tig caa gca get tga t-3′ (SEQ ID NO:6), non-CpG-ODN control (DNA dT*dG*dC*dT*dG*dC*dT*dG*dC*dT*dT*dG*dC*dA*dA*dG*dC*dA*dG*dC*dT*dT*dG*dA*dT)
invasion of MCF-10A cells [2]: stimulated invasion | invasion of MCF-10A cells ([2]; listed as non-CpG-ODN): induced a significant invasion response | cell viability (MTS), longer incubation [3]: significantly decreased viability | invasion of TLR9 negative MCF-7 cells [4]: did not, however, stimulate invasion | invasion of TLR9 negative MCF-7 cells ([4]; listed as non-CpG-ODN): no significant effect
